Laboratory results as given in patent US9408891B2, “Methods of using gelsolin to treat or prevent bacterial sepsis” (priority 2003, dated 2016).
Entries after “also recorded” stand apart in the source; their conditions may differ. Ends that are not written are not given here. * marks the point of attachment. RhodamineB = CCN(CC)c1ccc2c(-c3ccccc3C(=O)*)c3ccc(=[N+](CC)CC)cc-3oc2c1

How the values were obtained:
[1] = target: gelsolin (Homo sapiens, UniProt P06396); test: Actin severing activity of gelsolin (50 nM) with LTA or lysolipids; type: biochemical; settings: for inhibition of gelsolin by lysolipids: lipid below 1 μM
Protocol: (§1) The tested gelsolin concentration was 50 nM; LTA ranged from 0-50 μM; Pyrene-F-actin was 0.3 μM. Recording changes in fluorescently-labeled (rhodamine B-labeled) gelsolin peptide PBP10 (10 μM), indicates a specific interaction between gelsolin and LTA.

[2] = target: T1, recombinant human gelsolin (rhGLS) (Homo sapiens, UniProt P06396); test: Actin filament severing activity of purified gelsolin (pyrene F-actin depolymerization); type: biochemical; settings: molar basis comparison
T1 construct: purchased Biogen IDEC, Inc., Cambridge, Mass; host or cells: E. coli
Protocol: To determine gelsolin's severing activity, rates of fluorescence decrease were evaluated during depolymerization. Monomeric G-actin was prepared from an acetone powder of rabbit skeletal muscle according to previously published methods (Spudich et al., J. Biol. Chem […]). The non-polymerizing solution contained 2 mM TRIS, 0.2 mM CaCl2, 0.5 mM ATP (adenosine triphosphate), 0.2 mM DTT (dithiothreitol) pH 7.4. Actin was polymerized by adding 150 mM KCl and 2 mM MgCl2 to the G-actin solutions and incubating for 1 hour at room temperature.
For F-actin severing assays, in general, a small volume (typically 5 μl) of the gelsolin composition is added to a similar volume of pyrene-labeled F-actin at a concentration adjusted to provide an actin:gelsolin ratio of approximately 10:1 (typically 1 μM gelsolin and 10 μM actin). This mixture is the diluted to 0.5 μM in a larger volume of F-actin buffer, and the filament severing efficiency is calculated from the initial slope of the fluorescence change. This reflects the rate of depolymerization that, in turn, is proportional to the number of cuts made by gelsolin. The LPS/gelsolin reaction can be done under any ionic condition, and the addition to F-actin requires the presence of […] Ca^2+ to activate the gelsolin. […] The actin nucleation reaction is similar except that in the latter case, the gelsolin/LPS mixture is added to a more dilute solution of G-actin (typically, 1 or 2 μM) in low ionic strength buffer followed immediately by addition of 150 mM KCI and 2 mM MgCl2 to initiate polymerization.
(§2) As shown, recombinant human gelsolin (rhGLS) (FIG. 4A) and blood serum (FIG. 4B) severing activity was measured in 0.4 μM pyrene-labeled F-actin samples (polymerized with 50% pyrene-labeled G-actin), after adding gelsolin (16 nM)/serum (2.5 μl), or their combination with one of the following: LPS (from different species), PIP2 (phosphatidyl-inositol-4,5-bisphosphate), LPA (lysophosphatidic acid), lipid A (the LPS derivative lacking polysaccharide) or PS (phosphatidylserine). The fluorescence intensity of F-pyrene actin was then monitored for 10 minutes, and the severing activity was calculated based on decreasing fluorescence. Severing activity was determined from a decrease in rate of fluorescence during depolymerization, and the depolymerization rate was calculated from the slope of the early decrease in fluorescence.

[3] = test system: human platelets; test: Collagen-induced aggregation of gel-filtered platelets; type: cell-based
Protocol: To isolate human platelets, blood from healthy volunteers was collected in acid-citrate dextrose. Platelet-rich plasma obtained after centrifugation (15 minutes, 110×g) at room temperature, was supplemented with apyrase (0.5 U/ml) (Sigma-Aldrich) to degrade excess nucleotides. Platelets were sedimented by centrifugation (10 minutes, 1000×g), suspended in buffer A (139 mM NaCl, 2.8 mM KCl, 0.8 mM MgCl2, 0.8 mM KH2PO4, 8.9 mM NaHCO3, 10 mM HEPES, 5.6 mM glucose, 0.3% albumin, pH 7.35) and filtered on a 50 ml column of Sepharose 2B to obtain gel-filtered platelets (GFP).
Platelet aggregation was initiated by adding collagen (10 μg/ml) (Chrono-Log Corp., Havertown, Pa.). Platelet aggregation was monitored using a Chronolog Lumi-Aggregometer (Chrono-Log Corp.). Changes in light transmission were recorded for 10 minutes, using a PowerLab/200 instrument and MacLab Chart program Version 3.2. When required before activation, the platelet suspension was reacted with LPS, or LPS-preincubated with the SEQ ID No:1 peptide (QRLFQVKGRR).

[4] = Neutron scattering of LPS with gelsolin peptide; type: physicochemical; settings: preliminary neutron scattering
Text: The molecular structure of LPS and its complexes with proteins can be measured at nm resolution by X-ray and neutron scattering, as well as by electron and atomic force microscopy.
At present, the calculated diameter (36 nm) is greater than that which has been previously reported for pure LPS micelles, and the difference in size may reflect another structural feature. In additional experiments with more variations in gelsolin/LPS or peptide, LPS ratios will reveal if there are significant changes in LPS particle structure when these peptides bind LPS.

[5] = test system: NF-κB translocation in rat primary astrocytes; test: NF-κB translocation to the nucleus in astrocytes; type: cell-based; settings: astrocytes, 2 hour; LPS 2 μM or TNF-α 10 ng/ml
Protocol: Rat primary astrocytes were obtained from prenatal rats and maintained for 14 days in culture before use. Embryos (E17-E19) were removed by caesarian section from a Sprague-Dawley rat and the hippocampi were surgically removed. The tissue was digested in trypsin/DNAse at 37° C., centrifuged (1000×5 min) and filtered to derive suspensions from each pup. Cells were grown in an incubator at 37° C. and 5% CO2 in DMEM (Dulbecco's Modified Eagle's Medium; BioWhittaker/Cambrex BioScience, East Rutherford, N.J.), supplemented with Ham's F12 (Sigma-Aldrich, St. Louis, Mo.) and 5% fetal bovine serum (FBS) (Hyclone, Logan, Utah) for 7 days, followed by an additional 7 days in Neurobasal medium (Gibco, Grand Island, N.Y.) also supplemented with 5% FBS, 2 mM l-glutamine, 50 μg/ml streptomycin and 50 U/ml penicillin. In each experiment, the medium was changed to serum-free at 6-12 hours prior to addition of LPS, TNF-α, or gelsolin.
HAECs and astrocytes cultures were incubated for 10 minutes in medium containing 10 μg/ml LPS alone, or LPS that had been pre-incubated with 0.16 mg/ml of human gelsolin. Cultures were fixed with ice-cold methanol and immunostained for F-actin with fluorescein isothiocyanate (FITC)-labeled phalloidin (Molecular Probes, Eugene, Oreg.). In astrocyte cultures, NF-κB translocation was manipulated by a 2 hour incubation in serum-free medium containing one of the following: 10 ng/ml TNF-α, 10 μg/ml LPS alone, or LPS that had been preincubated with 0.16 mg/ml human gelsolin. Location of transcription factor nuclear factor-kappaB (NF-κB) was observed using a monoclonal antibody to NF-κB (Molecular Probes), and cell nuclei were detected by counter-staining with 4′, 6-diamidino-2-phenylindole dihydrochloride (DAPI) (Sigma).

[6] = target: T2, PBP10 (PIP2-binding site of gelsolin) (Homo sapiens, UniProt P06396); test: Rhodamine-B fluorescence change of gelsolin peptide PBP10 after adding lipids; settings: for fluorescence quenching / change of rhodamine-B peptide: 2 μM peptide, buffer A pH 7.0, 15 min
T2 construct: made in house; host or cells: solid phase peptide synthesis
Protocol: (§3) Therefore, to determine changes of gelsolin OD at 280 nm, different amounts of LPS, LPA and PS were added to recombinant human gelsolin (rhGLS) solutions and OD emission spectra were recorded using spectrophotometer Genesys 6 (Thermo-Spectronic, USA).
Interaction of LPS and gelsolin was examined using rhodamine B- and pyrene-labeled SEQ ID No:1 (QRLFQVKGRR). The effect of LPS on gelsolin was determined in terms of the rhodamine-B fluorescent changes of PBP10 peptide in the presence of different lipids (FIG. 1C); and the fluorescence emission spectra of pyrene-labeled SEQ ID No:1 (2 μM) in the presence of LPS from Escherichia coli (1.2 μM), PIP2 (0.82 μM) and LPA (0.82 μM) (FIG. 1D) The results using the pyrene-derivatized gelsolin peptide confirmed the LPS induced clustering of the peptide with resulting excimer fluorescence of the pyrene group, which was evident as a large increase in fluorescence emission at 480 nm.
as §1

[7] = test system: human neutrophils / human aortic endothelial cells (HAEC); test: Neutrophil adhesion to LTA-stimulated HAEC; type: cell-based; settings: LTA 10 μg/ml
Text: To investigate whether gelsolin can prevent gram-positive bacterial inflammation, the effect of LTA-mediated activation of human neutrophils was examined. Neutrophils were selected because their adhesion to human aorta endothelial cells (HAEC) is a hallmark of inflammation.
Neutrophils were isolated from human blood using the endotoxin-free Lympholyte-poly kit (Cedarlane, Ontario, Canada). The isolated neutrophil cells were resuspended in RPMI media. […] To quantify the adhesion, the neutrophils were labeled with calcein-AM (5 μM for 30 minutes at 37° C.).

[8] = target: T3, gelsolin activity in whole human serum (Homo sapiens, UniProt P06396); test: Actin filament severing activity of whole human serum; type: biochemical; settings: larger amounts needed than with pure gelsolin
T3 construct: from tissue; host or cells: whole human serum (2.5 µl)
Protocol: as §2

[9] = target: T1, recombinant human gelsolin (rhGLS); test: Change of gelsolin OD at 280 nm after adding lipids; type: binding; settings: OD 280 nm
Protocol: as §3

[10] = Solid phase binding of 3H-LPS to peptide-coated wells; design: species or system Salmonella minnesota; settings: for binding of 3H-LPS to peptide-coated surfaces: solid phase, wells coated with peptide
Protocol: To provide chemical and functional evidence that gelsolin binds LPS through its lipid-binding domain, a solid phase assay was conducted in which radiolabeled LPS was added to wells coated with different amounts of rhodamine-B-labeled-SEQ ID No:1 (rhodamine-B-QRLFQVKGRR, derived from the PIP2-binding site of gelsolin and termed “PBP10”), or to a truncated peptide (rhodamine-B-QRL), in the absence or presence of unlabeled LPS, respectively.
Tritium-labeling of LPS was done by a modification of the procedure of Watson and Riblet (Watson et al., J. Immunol 114:1462-8 (1975)). A sample (2 mg) of LPS from Salmonella minnesota Re595 (Sigma Chemical Co., St. Louis, Mo.) was oxidized (150 minutes, 20° C.) with sodium periodate (3×10^−2 M). After destruction of the oxidant with 1.0 M ethylene glycol, aldehyde groups were reduced (18 hours at 4° C.) with an ice-cold solution of NaB [^3H]4 (0.46 GBq, 481 GBq/mmole, wherein GBq refers to a unit of radioactivity) (Amersham-Pharmacia Biotech, Buckinghamshire, England) in 200 μl of ice-cold borate buffer (0.05 M, pH 9.5). Excess sodium borohydride was destroyed with 5 μl of acetic acid. After two washings (centrifugation at 100,000×g for 15 minutes) in 400 μl of an ice-cold water-ethanol mixture (1:1 by vol.), the radiolabeled [^3H]-LPS (9×10^5 cpm/μg; 2×10^3 cpm/pmole) was stored at −20° C. until used.
To measure [^3H] labeled-LPS-binding, polystyrene ELISA-type microplates (96 wells) were coated with PBP10 or rhodamine-B-QRL (RhB-QRL) by incubation for 18 hours at 4° C. with a solution (100 μl, 500 pmole/well) in saline. After three washings with 100 μl saline, the wells were then incubated at room temperature with [^3H]-LPS (360,000 c.p.m.), in the presence or absence of unlabeled LPS (20 μg/well), in a binding medium (100 μl) containing bovine serum albumin (50 μg) in saline. After 3 hours of incubation, the plates were washed three times with 100 μl saline washes, and the remaining bound radioactivity was measured.

Chain of gelsolin (P06396 28-782): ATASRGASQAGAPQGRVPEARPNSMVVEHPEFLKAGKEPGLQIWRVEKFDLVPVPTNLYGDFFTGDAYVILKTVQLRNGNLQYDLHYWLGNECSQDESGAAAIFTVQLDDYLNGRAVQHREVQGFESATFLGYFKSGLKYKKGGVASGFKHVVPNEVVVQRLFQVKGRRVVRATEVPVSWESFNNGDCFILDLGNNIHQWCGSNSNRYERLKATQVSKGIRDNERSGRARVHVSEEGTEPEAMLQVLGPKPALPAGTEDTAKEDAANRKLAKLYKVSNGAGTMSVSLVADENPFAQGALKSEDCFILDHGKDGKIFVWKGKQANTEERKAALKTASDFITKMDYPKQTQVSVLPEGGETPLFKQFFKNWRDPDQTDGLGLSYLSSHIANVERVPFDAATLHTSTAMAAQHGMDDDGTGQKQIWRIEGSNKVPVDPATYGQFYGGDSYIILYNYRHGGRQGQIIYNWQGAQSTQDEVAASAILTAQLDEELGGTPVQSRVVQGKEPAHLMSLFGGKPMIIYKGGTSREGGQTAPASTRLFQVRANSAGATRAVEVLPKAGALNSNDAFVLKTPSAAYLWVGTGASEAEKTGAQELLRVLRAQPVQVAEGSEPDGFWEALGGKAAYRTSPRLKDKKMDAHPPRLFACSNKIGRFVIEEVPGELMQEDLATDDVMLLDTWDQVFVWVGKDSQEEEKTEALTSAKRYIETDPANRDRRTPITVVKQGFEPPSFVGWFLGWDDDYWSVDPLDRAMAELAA
T3 sequence (P06396 28-782): as above
T1 sequence (P06396 28-782): as above

## CCCCCCCCCCCCC/C=C/[C@@H](O)[C@@H](N)COP(=O)(O)OCC[N+](C)(C)C [SPC, Sphingosylphosphocholine]
[1]
  inhibition of gelsolin by lysolipids: at least as strongly as lysophosphatidic acid (LPA); also recorded: also inhibit gelsolin

## Lipid A
[2]
  inhibitory effect on severing activity of purified gelsolin: weaker but still significant inhibitory effect; also recorded: weaker, but detectable inhibition; also recorded: weaker, but still significant inhibitory effect

## QRLFQVKGRR (peptide fragment of gelsolin) [gelsolin SEQ ID No:1, Gelsolin residues 160-169 peptide]
[3]; peptide added to LPS before addition to platelets, collagen 10 μg/ml
  reversal of LPS inhibition of collagen-induced platelet activation: restored, in a peptide concentration-dependent manner
[3]; without LPS
  effect of peptide alone on collagen-mediated platelet functions: had no effect on collagen-mediated platelet functions
[4]
  effect of peptide on calculated diameter of LPS: small, but significant increase in calculated diameter of LPS

## TNF-α
[5]
  induction of NF-κB translocation to the nucleus: caused NF-κB translocation to the nucleoplasm

## lipoteichoic acid [LTA]
[6]; PBP10 10 μM
  binding to PBP10 judged by changes in PBP10 fluorescence: approximately the same avidity as PIP2; also recorded: approximately the same efficiency as PIP2; also recorded: binds to the PIP2-binding site within the PBP10 peptide
[7]
  stimulation of neutrophil binding to the endothelial surface: stimulated binding of calcein AM-labeled neutrophils
[1]; LTA 0-50 μM, pyrene-F-actin 0.3 μM
  inhibition of gelsolin's actin severing activity: nearly as well as LPS does; also recorded: potent inhibitor

## lysophosphatidic acid [LPA]
[8]
  inhibition of gelsolin activity in whole human serum: much less effective in serum than in pure solution; also recorded: appeared to lack its effect in serum
[2]
  inhibitory effect on severing activity of purified gelsolin: strongly inhibited
[9]
  effect on absorbance of gelsolin: diminished the absorbance of gelsolin

## phosphatidylinositol-4,5-bisphosphate [PIP2]
[8]
  inhibition of gelsolin activity in whole human serum: able to inhibit gelsolin activity
[6]
  fluorescence quenching / change of rhodamine-B peptide: induced identical concentration-dependent fluorescence quenching

## platelet activating factor [PAF]
[1]
  inhibition of gelsolin by lysolipids: do not inhibit gelsolin

## rhodamine-B-QRL
[10]
  binding of 3H-LPS to peptide-coated surfaces: did not bind LPS
[6]
  fluorescence quenching / change of rhodamine-B peptide: no fluorescence change

## rhodamine-B-QRLFQVKGRR (RhodamineB-QRLFQVKGRR) [PBP10]
[10]; 5-fold excess of unlabeled LPS
  reduction of 3H-LPS binding by excess unlabeled LPS: approximately 50%
[10]
  binding of 3H-LPS to peptide-coated surfaces: saturably bound; also recorded: bound in a saturable manner
[10]; unlabeled LPS 20 μg/well
  inhibition of labeled LPS binding in the presence of excess LPS: substantial inhibition
